{"source": "paper PMC9135679", "about": "(Cell Reports, 2022)", "key": {"[1]": {"biological_target": "DQ5 (HLA-DQA1*01:01/DQB1*05:01) (Homo sapiens, UniProt P01909+P01920, A157S/A45G/A70V/C70R/D89V/E106S/E118A/E183D/E77G/F83G/G63E/H151Q/H199R/H252R/H253Q/I129T/I235V/I88M/INS77G/K197Q/L107V/L117V/L119Y/L178F/L71W/L74F/L85Q/L91A/L98M/M46L/N214S/P87R/Q116E/Q256R/Q57E/Q76K/R102G/R240Q/R75S/R78G/S102Y/S185I/S41F/S97I/T103A/T109R/T121G/T122I/T172A/T86R/V148I/V68A/V73E/Y34C/Y58G/Y62H)", "test": "Fluorescence polarization competition peptide binding assay, DQ5", "conditions": "Figure 5E, described in words"}, "[2]": {"system": "in vitro expanded T cell lines", "test": "IFN-γ ELISpot, T cells expanded in vitro with peptides or peptide pools", "assay_type": "cell-based, human", "conditions": "HCoV S pool-expanded lines from 3 convalescent COVID-19 donors; pool deconvolution; 1 μg/mL per peptide; positive by DFR2X"}, "[3]": {"system": "PBMC from COVID-19, vaccinated, seronegative and pre-pandemic donors", "test": "IFN-γ ELISpot, ex vivo PBMC", "assay_type": "cell-based, human", "conditions": "of 10 convalescent COVID-19 donors analyzed"}, "[4]": {"system": "T cell clones with partially HLA-matched APCs (LG2, 9068, MN605)", "test": "T cell clone stimulation, IFN-γ ELISA", "assay_type": "cell-based, human", "conditions": "for dose-dependent reactivity relative to the SARS-CoV-2 peptide: 10-fold dilution series 1-10^−4 μg/mL, 24 hours"}}, "data": [{"substance": "RVAGRSAIEDILFSKLV [229E-115]", "values": [{"measurement": "binding of homolog peptides to DQ5 relative to S811–831", "setting": "[1]", "value": "substantially weaker binding"}]}, {"substance": "S986–1,006: SARS-CoV-2 spike candidate epitope, overlapping peptides 198/199", "values": [{"measurement": "donors recognizing the pair of overlapping peptides", "setting": "[2]", "value": "single"}, {"measurement": "donors showing ex vivo responses", "setting": "[3]", "value": 1, "unit": "donors"}]}, {"substance": "SALEDLLFSKVVTSGLG [NL63-146]", "values": [{"measurement": "binding of homolog peptides to DQ5 relative to S811–831", "setting": "[1]", "value": "substantially weaker binding"}, {"measurement": "dose-dependent reactivity relative to the SARS-CoV-2 peptide", "setting": "[4]; […]", "value": "approximately 10 fold weaker"}]}, {"substance": "SSSRSFFEDLLFDKVKL [HKU1-151]", "values": [{"measurement": "binding of homolog peptides to DQ5 relative to S811–831", "setting": "[1]", "value": "binds more strongly than SARS-CoV-2"}, {"measurement": "dose-dependent reactivity compared with S811–826", "setting": "[4]; clone #49, cyan group (DQ5, CoV2/HKU1)", "value": "similar"}, {"measurement": "dose-dependent reactivity relative to the SARS-CoV-2 peptide", "setting": "[4]; clone #120, gold group (DP4, CoV2/HKU1)", "value": "approximately 10 fold weaker"}]}]}
